Test results as given in patent publication US11414416B1, “Compounds and uses thereof” (Foghorn Therapeutics Inc., priority 2019, dated 2022).

Columns and labels:
BRD9 bromodomain = BRD9 bromodomain (Homo sapiens (Human), UniProt Q9H8M2); test: BRD9 bromodomain TR-FRET competition binding assay; conditions: Table 4; competition with biotinylated ligand, 3 nM Flag-BRD9, 90 minutes
Experimental: Procedure: His-Flag-BRD9 (P133-K239; Swiss Prot Q9H8M2; SEQ ID NO:1 mgsshhhhhhenlyfq/gdykddddkgslevlfqg/[…] […]) was cloned, expressed, purified, and then treated with TEV protease. Cleaved His tag was removed by purification. The binding of a biotinylated small molecule ligand of BRD9 was assessed via the LANCE® TR-FRET platform (PerkinElmer), and the compounds were assayed for inhibitory activity against this interaction.
A mixture of biotinylated-ligand and SureLight™ Allophycocyanin-Streptavidin (APC-SA, PerkinElmer AD0201) in 50 mM HEPES (pH 7.4), 50 mM NaCl, 1 mM TCEP (pH 7), 0.01% (v/v) Tween-20, 0.01% (w/v) bovine serum albumin was added to a white 384-well PerkinElmer Proxiplate Plus plate. DMSO or 3-fold serially diluted compounds were then added to the Proxiplate followed by addition of Flag-BRD9. After a 10-minute incubation at room temperature, Eu-W1024 anti-FLAG (PerkinElmer, AD0273) was added. The final reaction mixture that contained 3.75 nM biotinylated ligand, 3 nM Flag-BRD9, 7.5 nM SureLight™ Allophycocyanin-Streptavidin, and 0.2 nM Eu-W1024 anti-FLAG was incubated at room temperature for 90 minutes.
Results: The plates were then read on a PerkinElmer Envision plate reader to determine the ratio of emission at 665 nm over 615 nm. […]

[1] = target: Nanoluciferase-BRD9 fusion protein (Homo sapiens (Human), UniProt Q9H8M2); test: SYO1 BRD9 NanoLuc degradation assay; type: cell-based; conditions: Table 5A, SYO-1 cells expressing 3×FLAG-NLuc-BRD9, 6 hours; for DC50: read-out: SYO1 BRD9-NanoLuc degradation IC50
How it was run: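 Degradation was read as loss of nanoluciferase signal (Nano-Glo) after 6 h compound exposure in a stable SYO-1 line carrying 3×FLAG-NLuc-BRD9 (8000 cells/well). Normalised between DMSO (high) and a 1 μM known BRD9 degrader (low).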

BRD9 bromodomain, sequence (Q9H8M2 133-239): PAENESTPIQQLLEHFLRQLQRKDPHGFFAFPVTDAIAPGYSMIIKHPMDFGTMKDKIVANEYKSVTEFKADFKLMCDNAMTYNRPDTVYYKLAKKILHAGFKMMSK
Nanoluciferase-BRD9 fusion protein, sequence (Q9H8M2 whole entry, the tested form may be a part): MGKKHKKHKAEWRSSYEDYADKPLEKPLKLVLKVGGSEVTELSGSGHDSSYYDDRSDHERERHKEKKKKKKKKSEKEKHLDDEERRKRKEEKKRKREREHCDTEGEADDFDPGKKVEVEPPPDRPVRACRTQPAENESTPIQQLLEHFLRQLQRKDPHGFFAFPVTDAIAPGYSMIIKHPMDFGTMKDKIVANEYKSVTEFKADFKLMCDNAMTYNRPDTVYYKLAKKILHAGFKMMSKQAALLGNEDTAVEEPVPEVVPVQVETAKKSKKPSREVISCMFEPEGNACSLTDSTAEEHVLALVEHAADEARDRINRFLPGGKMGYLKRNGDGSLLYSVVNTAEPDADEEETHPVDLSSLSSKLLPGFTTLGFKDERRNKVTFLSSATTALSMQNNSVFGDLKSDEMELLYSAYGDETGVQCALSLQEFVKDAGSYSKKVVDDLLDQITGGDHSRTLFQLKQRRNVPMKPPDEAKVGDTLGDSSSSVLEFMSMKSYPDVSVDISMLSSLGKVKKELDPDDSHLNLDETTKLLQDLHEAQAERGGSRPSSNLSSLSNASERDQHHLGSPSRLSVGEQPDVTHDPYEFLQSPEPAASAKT

Row | Structure (SMILES) | IC50 (BRD9 bromodomain) [µM] | IC50 [1] [µM] | DC50 [1] [µM]
1 | COc1cc(-c2cn(C)c(=O)c3cnccc23)cc(OC)c1CN1CCN(C(=O)COc2cccc3c2C(=O)N(C2CCC(=O)NC2=O)C3=O)CC1 (stereo not shown) [Compound D37, 4-(2-(4-(2,6-dimethoxy-4-(2-methyl-1-oxo-1,2-dihydro-2,7-naphthyridin-4-yl)benzyl)piperazin-1-yl)-2-oxoethoxy)-2-(2,6-dioxopiperidin-3-yl)isoindoline-1,3-dione formic acid] | < 0.01 | < 0.01 | –
2 | COc1cc(-c2cn(C)c(=O)c3cnccc23)cc(OC)c1CN(C)CC1CC12CCN(C(=O)CCOCCOc1cccc3c1C(=O)N(C1CCC(=O)NC1=O)C3=O)CC2 (stereo not shown) [Compound D163] | < 0.01 | – | 0.01 to 0.1
3 | COc1cc(-c2cn(C)c(=O)c3cnccc23)cc(OC)c1CN1CCC2(CCN(C(=O)CCOCCOc3cccc4c3C(=O)N(C3CCC(=O)NC3=O)C4=O)C2)C1 (stereo not shown) [Compound D108] | < 0.01 | < 0.01 | –
4 | COc1cc(-c2cn(C)c(=O)c3cnccc23)cc(OC)c1CN(C)C12CC(C(=O)NCCOCCOCCNc3cccc4c3C(=O)N(C3CCC(=O)NC3=O)C4=O)(C1)C2 (stereo not shown) [Compound D58, 3-([[2,6-dimethoxy-4-(2-methyl-1-oxo-2,7-naphthyridin-4-yl)phenyl]methyl] (methyl)amino)-N-[2-[2-(2-[[2-(2,6-dioxopiperidin-3-yl)-1,3-dioxoisoindol-4-yl]amino]ethoxy)ethoxy]ethyl]bicyclo[1.1.1]pentane-1-carboxamide] | < 0.01 | < 0.01 | –
5 | COc1cc(-c2cn(C)c(=O)c3cnccc23)cc(OC)c1CN(C)CC1CC2(C1)CN(C(=O)CCOCCOc1ccc3c(c1)C(=O)N(C1CCC(=O)NC1=O)C3=O)C2 (stereo not shown) [Compound D174] | 0.01 to 0.1 | 0.1 to 1 | –
6 | COc1cc(-c2cn(C)c(=O)c3cnccc23)cc(OC)c1CN1CCN(C(=O)C2CC2CNC(=O)COc2cccc3c2C(=O)N(C2CCC(=O)NC2=O)C3=O)CC1 (stereo not shown) [Compound D65, N-[[2-(4-[[2,6-dimethoxy-4-(2-methyl-1-oxo-2,7-naphthyridin-4-yl)phenyl]methyl]piperazine-1-carbonyl)cyclopropyl]methyl]-2-[[2-(2,6-dioxopiperidin-3-yl)-1,3-dioxoisoindol-4-yl]oxy]acetamide] | 0.01 to 0.1 | 0.1 to 1 | –
7 | COc1cc(-c2cn(C)c(=O)c3cnccc23)cc(OC)c1CN1CCC(OC2CCN(C(=O)CCOCCOc3ccc4c(c3)C(=O)N(C3CCC(=O)NC3=O)C4=O)C2)CC1 (stereo not shown) [Compound D130] | < 0.01 | < 0.01 | –
8 | COc1cc(-c2cn(C)c(=O)c3cnccc23)cc(OC)c1CN1CCC(C2CCN(C(=O)CCOCCOc3ccc4c(c3)C(=O)N(C3CCC(=O)NC3=O)C4=O)C2)CC1 (stereo not shown) [Compound D129] | < 0.01 | < 0.01 | –
9 | COc1cc(-c2cn(C)c(=O)c3cnccc23)cc(OC)c1CN(C)CC1CC12CCN(C(=O)CCOCCOc1ccc3c(c1)C(=O)N(C1CCC(=O)NC1=O)C3=O)CC2 (stereo not shown) [Compound D172] | < 0.01 | – | 0.01 to 0.1
10 | COc1cc(-c2cn(C)c(=O)c3cnccc23)cc(OC)c1CN1CCC2(C[C@H]2NC(=O)CCOCCOc2ccc3c(c2)C(=O)N(C2CCC(=O)NC2=O)C3=O)C1 (stereo partly shown) [Compound D126] | 0.01 to 0.1 | 0.1 to 1 | –
11 | COc1cc(-c2cn(C)c(=O)c3cnccc23)cc(OC)c1CN1CC[C@H]1C(=O)NCCN(C)CCNc1cccc2c1C(=O)N(C1CCC(=O)NC1=O)C2=O (stereo partly drawn) [Compound D25, (2S)-1-[[2,6-dimethoxy-4-(2-methyl-1-oxo-1,2-dihydro-2,7-naphthyridin-4-yl)phenyl]methyl]-N-[2-[(2-[[2-(2,6-dioxopiperidin-3-yl)-1,3-dioxo-2,3-dihydro-1H-isoindol-4-yl]amino]ethyl)(methyl)amino]ethyl]azetidine-2-carboxamide] | < 0.01 | – | 0.1 to 1
12 | COc1cc(-c2cn(C)c(=O)c3cnccc23)cc(OC)c1CN1CCC2(CC1)CN(C(=O)COc1ccc3c(c1)C(=O)N(C1CCC(=O)NC1=O)C3=O)CCO2 (stereo not shown) [Compound D64, 5-[2-(9-[[2,6-dimethoxy-4-(2-methyl-1-oxo-2,7-naphthyridin-4-yl)phenyl]methyl]-1-oxa-4,9-diazaspiro[5.5]undecan-4-yl)-2-oxoethoxy]-2-(2,6-dioxopiperidin-3-yl)isoindole-1,3-dione formic acid] | 0.01 to 0.1 | 0.1 to 1 | –
13 | COc1cc(-c2cn(C)c(=O)c3cnccc23)cc(OC)c1CN(C)C(=O)CCCCN1CCOC2(CCN(c3ccc4c(c3)C(=O)N(C3CCC(=O)NC3=O)C4=O)CC2)C1 (stereo not shown) [Compound D72, N-[[2,6-dimethoxy-4-(2-methyl-1-oxo-2,7-naphthyridin-4-yl)phenyl]methyl]-5-[9-[2-(2,6-dioxopiperidin-3-yl)-1,3-dioxoisoindol-5-yl]-1-oxa-4,9-diazaspiro[5.5]undecan-4-yl]-N-methylpentanamide formic acid] | < 0.01 | < 0.01 | –
14 | COc1cc(-c2cn(C)c(=O)c3cnccc23)cc(OC)c1CN(C)C1CCC2CN(C(=O)CCOCCOc3ccc4c(c3)C(=O)N(C3CCC(=O)NC3=O)C4=O)CC21 (stereo not shown) [Compound D170] | 0.01 to 0.1 | < 0.01 | –
15 | COc1cc(-c2cn(C)c(=O)c3cnccc23)cc(OC)c1CN(C)CC(=O)NCCCC(=O)NC12CC(Nc3cccc4c3C(=O)N(C3CCC(=O)NC3=O)C4=O)(C1)C2 (stereo not shown) [Compound D71, 4-(2-((2,6-dimethoxy-4-(2-methyl-1-oxo-1,2-dihydro-2,7-naphthyridin-4-yl)benzyl) (methyl)amino)acetamido)-N-(3-((2-(2,6-dioxopiperidin-3-yl)-1,3-dioxoisoindolin-4-yl)amino)bicycle[1.1.1]pentan-1-yl)butanamide] | < 0.01 | – | < 0.01
16 | COc1cc(-c2cn(C)c(=O)c3cnccc23)cc(OC)c1CN1CCN(C(=O)CCCOc2cccc3c2C(=O)N(C2CCC(=O)NC2=O)C3=O)CC1 (stereo not shown) [Compound D33, 4-(4-(4-(2,6-dimethoxy-4-(2-methyl-1-oxo-1,2-dihydro-2,7-naphthyridin-4-yl)benzyl)piperazin-1-yl)-4-oxobutoxy)-2-(2,6-dioxopiperidin-3-yl)isoindoline-1,3-dione] | < 0.01 | < 0.01 | –
17 | COc1cc(-c2cn(C)c(=O)c3cnccc23)cc(OC)c1CN1CCC2(CCN(C(=O)CCOCCOc3cccc4c3C(=O)N(C3CCC(=O)NC3=O)C4=O)CC2)C1 (stereo not shown) [Compound D89] | < 0.01 | < 0.01 | –
18 | COc1cc(-c2cn(C)c(=O)c3cnccc23)cc(OC)c1CN1CC(C(=O)NCCCCCCCCNc2cccc3c2C(=O)N(C2CCC(=O)N(C)C2=O)C3=O)C1 (stereo not shown) [Compound D8, 1-[[2,6-dimethoxy-4-(2-methyl-1-oxo-1,2-dihydro-2,7-naphthyridin-4-yl)phenyl]methyl]-N-(8-[[2-(1-methyl-2,6-dioxopiperidin-3-yl)-1,3-dioxo-2,3-dihydro-1H-isoindol-4-yl]amino]octyl)azetidine-3-carboxamide formic acid] | < 0.01 | – | > 1
19 | COc1cc(-c2cn(C)c(=O)c3cnccc23)cc(OC)c1CN1CCC2(CCN(C(=O)CCOCCOc3ccc4c(c3)C(=O)N(C3CCC(=O)NC3=O)C4=O)C2)C1 (stereo not shown) [Compound D121] | 0.01 to 0.1 | 0.01 to 0.1 | –
20 | COc1cc(-c2cn(C)c(=O)c3cnccc23)cc(OC)c1CN1CCC12CCN(C(=O)CCOCCOc1cccc3c1C(=O)N(C1CCC(=O)NC1=O)C3=O)C2 (stereo not shown) [Compound D95] | 0.01 to 0.1 | 0.1 to 1 | –
